“Also recorded” adds a separate entry of the source. Square brackets hold non-standard residues; d marks the D form. Ends that are not written are not given here. Nle = CCCC[C@H](N)C(=O)O; Nva = CCC[C@H](N)C(=O)O
Legend:
PRAME425-433 peptide = experiment: IFN-gamma ELISA of splenocytes after pCTLR2 prime and peptide boost; assay type: in vivo, HHD transgenic mice; settings: pCTLR2 prime, 2.5 μg peptide boost; versus native peptide boost; FIG. 29
A2-624.28 control cells = experiment: Ex vivo cytotoxicity against A2-negative control cells; assay type: in vivo; settings: same effector cells as for 624.38
Experimental: (§1) This was followed by two peptide boosts (2.5 μg) at day 28 and 31, with the analog L426Nva L433Nle.

splenocytes = experiment: Ex vivo cytokine production (IFN-gamma ELISA) after boost with PRAME analogs; assay type: in vivo, HHD transgenic mice; settings: 10 μg/ml native peptide, 48 hours; FIG. 32
HLA-A*0201 = HLA-A*0201 (Homo sapiens, UniProt P04439, D140Y/D185E/D98H/E176V/E277Q/G131W/G231S/I119V/I121R/I166T/I218V/L300P/L318F/N151K/N90K/P208A/P217A/Q86G/Q94H/R138H/R169H/T345S); experiment: iTopia affinity assay (ED50); assay type: binding; settings: compared with the respective native peptide
Text: Avidin-coated microtiter plates containing class I monomer loaded with a so-called placeholder peptide were used to evaluate peptide binding, affinity and off-rate. The monomer-coated plates were supplied as part of the iTopia Epitope Discovery System Kit (Beckman Coulter, Inc., San Diego, Calif., USA). Assay buffers, anti-MHC-FITC mAb and beta2-microglobulin and control peptides were also supplied with the kits.
Plates were read on the fluorometer. Sigmoidal dose response curves were generated using Prism software.

[1] = tested on: PRAME425-433-specific T cells; experiment: Tetramer/CD8 co-staining of PRAME425-433-specific T cells; assay type: in vivo, HHD transgenic mice; settings: versus boost with negative control peptide; FIG. 31
[2] = tested on: T cell line specific for the native epitope PRAME425-433; experiment: Cross-reactivity of PRAME425-433 analogs: IFN-gamma secretion from T cell line specific for native epitope; assay type: cell-based; settings: analog peptide at approximately 0.3 μM; normalized to native PRAME425-433
Experimental: The analogs listed in FIGS. 26-28 were tested for various properties such as improved affinity and stability of binding, cross-reactivity with the native epitope, and immunogenicity as follows in Examples 40-48. […] The observed affinities of the analogs are reported as % binding (compared to the positive control) and ED50, and stability of binding as half time of dissociation. Cross reactivity with the native epitope was assessed by using the analog peptides to stimulate IFN-gamma secretion from a T cell line specific for the native epitope, essentially as described in Example 6. The data shown in FIGS. 26-28 were generated by stimulating with analog peptide at approximately 0.3 μM. […] In some cases, the reported values are the average of two determinations.

[3] = target: A0201 restricted MHC Class 1 molecules (Homo sapiens, UniProt P04439, D140Y/D185E/D98H/E176V/E277Q/G131W/G231S/I119V/I121R/I166T/I218V/N151K/N90K/P208A/P217A/Q86G/Q94H/R138H/R169H); experiment: iTopia off-rate assay (T1/2); assay type: binding; settings: compared with the respective native peptide
Experimental: Avidin-coated microtiter plates containing class I monomer loaded with a so-called placeholder peptide were used to evaluate peptide binding, affinity and off-rate. […] Assay buffers, anti-MHC-FITC mAb and beta2-microglobulin and control peptides were also supplied with the kits.
The plates were then incubated on the allele-specific monomer plates at 37° C. The plates were measured at multiple time points (0, 0.5, 1, 1.5, 2, 4, 6 and 8 hrs) for relative fluorescence intensity. The time required for 50% of the peptide to dissociate from the MHC monomer is defined as the T1/2 value (hrs).
The binding and offrate (T1/2) was determined for six native epitopes and their analogs which were designed to enhance the immune response.

[4] = tested on: native peptide loaded splenocytes; experiment: In vivo cytotoxicity against native PRAME peptide-loaded splenocytes (CFSE); design: species or system HHD transgenic mice; settings: pCTLR2 prime, peptide boost; FIGS. 30-31
624.38 melanoma cells = experiment: Ex vivo cytotoxicity against PRAME+ A2+ human tumor cells; assay type: in vivo; settings: splenocytes restimulated ex vivo with native PRAME peptide
Experimental: as §1

“S{Nva}LQHLIG{Nle} (S[Nva]LQHLIG[Nle]) [Prame 425-433 (L426Nva, L433Nle)]” was tested, and the “IFN-γ production in response to PRAME425-433 peptide (ELISA)” value (PRAME425-433 peptide) was “significant enhancement of IFN-γ production”, the “cytotoxicity against A2-negative control cells” value (A2-624.28 control cells) was “no significant activity” and the “ex vivo cytokine production (IFN-γ) by splenocytes” value (splenocytes) was “greater response”. For the same substance, the “binding affinity (ED50) / binding characteristics, in words” value (HLA-A*0201) was “similar, somewhat improved binding characteristics”, the “expansion of T cells specific against the native epitope (tetramer staining)” value [1] was “significantly higher” and the “IFN-γ production (cross-reactivity), in words” value [2] was “significant level of cross-recativity”. The “stability of binding (half-time of dissociation), in words” value [3] was “Significant increase in the stability”, the “in vivo cytotoxicity against native epitope, in words” value [4] was “preserved induction of cytotoxicity; also recorded: capable of expanding the immunity against the native epitope” and the “cytotoxicity against 624.38 human tumor cells” value (624.38 melanoma cells) was “significant cytotoxicity”.

Reference: US7511119B2, “PRAME peptide analogues” (MannKind Corporation, priority 2005, dated 2009)
